Measurements from PubChem BioAssay (NCI).
Where “and” joins values, the source holds several entries; their conditions need not be identical. Identical values can stand only once.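 In this assay, cells in 96-well plates receive the compound at five concentrations for 48 hours. Endpoints are linearly interpolated between the surrounding concentrations. GI50 = concentration required for 50% inhibition of growth. The concentration for full growth arrest is given as TGI.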

Test system: MDA-MB-468 breast
Assay: DTP human tumour cell line panel, 48 h

Row | Structure (SMILES) | GI50 | TGI
1 | O=C1c2c(c(=O)[nH]c3ccccc23)[C@H](c2ccccc2)[C@@H]2CCCN12 | 2920 nM | 14300 nM
2 | CC1=C([Te]c2ccccc2)C(=O)c2ccccc2C1=O | 442 nM | 2120 nM
3 | Cc1c(CN2CCN(C(=O)[C@H](C)O)CC2)sc2c(N3CCOCC3)nc(-c3cnc(N)nc3)nc12 | 124 nM and 79.3 nM | 1140 nM and 456 nM
4 | COc1cc2nc(N3CCCN(C)CC3)nc(NC3CCN(Cc4ccccc4)CC3)c2cc1OC | 1500 nM | 3190 nM
5 | CN(C)c1ccc(/C=N/NC(N)=S)nc1 | 2210 nM | 8410 nM
6 | C[C@@H]1C[C@H](N)C[C@H](c2ccncc2NC(=O)c2ccc(F)c(-c3c(F)cccc3F)n2)C1 | 4160 nM and 2910 nM | 18300 nM and > 10000 nM
7 | C=C(C)[C@@H]1CC[C@]2(CO)CC[C@]3(C)[C@H](CC[C@@H]4[C@@]5(C)CCCNC(C)(C)[C@@H]5CC[C@]43C)[C@@H]12 | 1660 nM | 3380 nM
8 | COc1ccc(C(C)=C(c2ccc(OCCN3CCCCCC3)cc2)c2ccc(OCCN3CCCCCC3)cc2)cc1 | 806 nM | 3050 nM
9 | COc1cc(CCC[P+](c2ccccc2)(c2ccccc2)c2ccccc2)c(OC)c2c1OCO2 | 292 nM | 950 nM
10 | COc1cc(-c2nn(-c3cccc(NC(=O)Nc4ccc(Cl)c(C(F)(F)F)c4)c3)cc2-c2ccncc2)ccc1Cl | 833 nM | 4420 nM
11 | COc1ccc2c(c1)c(-c1nc(-c3cn(C)c4ccncc34)cs1)cn2C | 1620 nM | 3200 nM
12 | COc1cc2nc(Nc3cccc(Cl)c3)nc(N)c2cc1OC | 4370 nM | 17300 nM
13 | Cc1ccc(CNc2ccc3nc(CCC4CCCCC4)[nH]c3c2)cc1 | 1520 nM | 3350 nM
14 | O=S(=O)(N=C1C(Cl)=C(Cl)C(=NS(=O)(=O)c2ccccc2)C(Cl)=C1Cl)c1ccccc1 | 15100 nM | 35900 nM
15 | Nc1ncc(-c2ccc3ncnc(Nc4cccc(Cl)c4)c3c2)cn1 | 56.5 nM | 378 nM
16 | NC(=S)N/N=C/c1ccc(OC(=O)COc2cc(Cl)c(Cl)cc2Cl)cn1 | 2410 nM | 8710 nM
17 | CCCc1nn(C)c2c(=O)[nH]c(-c3cc(S(=O)(=O)N4CCN(C)CC4)ccc3OCC)nc12 | 35000 nM | > 100000 nM
18 | COc1ccc(Nc2nc(NCCNc3ccnc4cc(Cl)ccc34)nc(N3CCOCC3)n2)cc1 | 1620 nM | 4030 nM
19 | CCN1CCN(CCNc2nccc(-c3c(-c4ccc(F)c(O)c4)nc4occn34)n2)S1(=O)=O | 4530 nM | > 100000 nM
20 | Cn1ncc(Cl)c1-c1cc(C(=O)N[C@H](CN)Cc2cccc(F)c2)sc1Cl | 38.7 nM and 92 nM | 582 nM and 1390 nM
21 | CCOC(=O)c1[nH]c2cc(Cl)ccc2c1[C@@H](C(=O)NC(C)(C)C)N(CC)C(=O)CCCCC#Cc1cccc2c1CN(C1CCC(=O)NC1=O)C2=O (stereo not given in full) | < 10 nM | < 14.2 nM
22 | COC[C@H](NC(=O)c1cnc(C)s1)C(=O)N[C@@H](COC)C(=O)N[C@@H](Cc1ccccc1)C(=O)[C@@]1(C)CO1 | 14800 nM | 38100 nM
23 | Cc1c(Cn2c(C)nc3c(C(=O)O)cc(N4CCOCC4)cc32)cccc1C(F)(F)F | 26700 nM | > 100000 nM
24 | C(=N\Nc1ncc(-c2cc3cc4c(cc3o2)OCO4)s1)/c1ccco1 | 2140 nM | 7140 nM
25 | CN1C(=O)CCC(N2C(=O)c3cccc(NCCOCCOCCNC(=O)c4cc5c(o4)C(=O)c4ccccc4C5=O)c3C2=O)C1=O (stereo not given) | 1760 nM | 5040 nM
26 | COc1cnc2c(c1)C(=O)c1c-2n(CCCN2CCCC2)c(=O)c2cc([N+](=O)[O-])ccc12 | 27.1 nM | 1030 nM
27 | Cc1ccc2c(C(C[N+](=O)[O-])c3ccccc3)c(-c3ccccc3)[nH]c2c1 (stereo not given) | 12700 nM | > 95000 nM
28 | Fc1cccc(COc2ccc(Nc3ncnc4onc(-c5ccccc5)c34)cc2)c1 | 116 nM | 2160 nM
29 | COc1ccc(Br)cc1NC(=O)Nc1cccc2c1ccn2Cc1ccnc(N)c1 | 2850 nM and 4540 nM | 12000 nM and > 10000 nM
30 | CC(=O)O.CN1[CH-]N(Cc2ccc(C#N)cc2)c2ccccc21.[Ag+] | 12800 nM | 28500 nM
